What was measured:
[1] = biological target: human serum albumin, binding site II (plasma of patients with cirrhosis) (Homo sapiens, UniProt P02768); conditions: cirrhotic patients vs controls
Excerpt: (§1) In blood samples derived from the study population (9 consecutive patients with acute-on-chronic liver failure (ACLF) being evaluated for extracorporeal liver support and 20 patients with cirrhosis who were candidates for liver transplantation), albumin was fractionated by HPLC as previously described (Kawai, K. et al. (2001) Tokai J. Exp. Clin. Med. 26, 93-99) resulting in three protein fractions representing cysteine 34 as free sulfhydryl form (HMA), as mixed disulfide (HNA1), or in a higher oxidation state (HNA2).
(§2) Plasma albumin concentrations were determined by using an automatic clinical chemical analyser (EuroLyser, Eurolyser Diagnostica, Salzburg, Austria).
(§3) Serum samples were diluted with PBS and adjusted to an albumin concentration of 40 μM. Based on the 40 μM sample, a dilution series with final concentrations of 20 μM, 10 μM, and 5 μM albumin (in PBS) was made. Each of these samples (250 μl) was mixed with the same volume of 10 μM DS (Sigma-Aldrich, Vienna, Austria) solution. […] DS was detected by means of determining fluorescence at 482/350 nm using a Hitachi F1050 (Merck) detector. Quantificaton via the peak heights was done using the EZ Chrom Elite chromatography software (VWR, Vienna, Austria). From the straight line obtained by the graph of ln (free DS) vs. albumin, the albumin concentration binding half of the ligand was calculated and given as IC50 (μmol/l).

[2] = biological target: human serum albumin, binding site II (plasma of patients with acute-on-chronic liver failure, ACLF) (Homo sapiens, UniProt P02768); conditions: ACLF group vs controls
Excerpt: as §1, §2, §3

[3] = biological target: human serum albumin, binding site II (plasma of patients with sepsis) (Homo sapiens, UniProt P02768); conditions: septic group vs controls
Sequence of human serum albumin, binding site II (plasma of patients with sepsis) (P02768 25-609): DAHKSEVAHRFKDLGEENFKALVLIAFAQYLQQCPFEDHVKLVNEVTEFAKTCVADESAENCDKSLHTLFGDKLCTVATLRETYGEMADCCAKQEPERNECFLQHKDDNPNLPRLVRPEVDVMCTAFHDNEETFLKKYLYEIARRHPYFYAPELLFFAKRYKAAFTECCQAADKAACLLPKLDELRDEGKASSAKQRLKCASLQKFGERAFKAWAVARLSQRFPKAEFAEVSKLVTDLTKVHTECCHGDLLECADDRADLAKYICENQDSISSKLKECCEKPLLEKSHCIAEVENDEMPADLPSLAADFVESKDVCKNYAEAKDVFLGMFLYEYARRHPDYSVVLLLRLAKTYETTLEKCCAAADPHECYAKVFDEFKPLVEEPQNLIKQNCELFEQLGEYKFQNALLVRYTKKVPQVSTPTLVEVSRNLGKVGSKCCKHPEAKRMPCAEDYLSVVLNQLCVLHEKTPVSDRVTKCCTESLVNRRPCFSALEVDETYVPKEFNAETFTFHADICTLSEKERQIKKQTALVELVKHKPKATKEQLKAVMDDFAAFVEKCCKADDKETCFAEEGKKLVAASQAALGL
Description: as §2
Serum samples were diluted with PBS and adjusted to an albumin concentration of 40 μM. Based on the 40 μM sample, a dilution series with final concentrations of 20 μM, 10 μM, and 5 μM albumin (in PBS) was made. Each of these samples (250 μl) was mixed with the same volume of 10 μM DS (Sigma-Aldrich, Vienna, Austria) solution. Unbound DS molecules were separated from the plasma components via ultrafiltration (Ultrafree-MC reg. Cellulose 30K, Millipore, Vienna, Austria) at 500 g for 10 min at room temperature. 150 μl of the flow through were put into HPLC vials. As a control, 10 μM DS was diluted with the same volume of Millipore water and ultrafiltered as described. For an external standard curve, a dilution series of DS with Millipore water (10 μM, 5 μM, 2.5 μM, and 1.25 μM) was prepared. 20 μl of the filtrate were then injected to the HPLC system. […] DS was detected by means of determining fluorescence at 482/350 nm using a Hitachi F1050 (Merck) detector. Quantificaton via the peak heights was done using the EZ Chrom Elite chromatography software (VWR, Vienna, Austria). From the straight line obtained by the graph of ln (free DS) vs. albumin, the albumin concentration binding half of the ligand was calculated and given as IC50 (μmol/l). […]

Sequence of human serum albumin, binding site II (plasma of patients with cirrhosis) (P02768 25-609): as above
Sequence of human serum albumin, binding site II (plasma of patients with acute-on-chronic liver failure, ACLF) (P02768 25-609): as above

CN(C)c1cccc2c(S(=O)(=O)N(C)CC(=O)O)cccc12 [dansylsarcosine] was tested, and the “DS binding, compared with controls” value [1] was “no difference in DS binding between controls and cirrhotic patients”, the “IC50-values, compared with controls” value [2] was “IC50-values were increased in the septic and ACLF group” and the “IC50-values, compared with controls” value [3] was “IC50-values were increased in the septic and ACLF group”.

From patent US20140234988A1, “Methods for Diagnosing and Treating Medical Conditions Associated With Oxidative Stress” (priority 2011, published 2014)
